Source: PubChem BioAssay (NCI)
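Assay format: 96-well plates, 48-hour exposure. GI50: concentration for 50% inhibition of growth. The concentration for full growth arrest is given as TGI.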

How the values were obtained:
Assay in all cases: growth of human tumour cells (NCI), 48 h
[1] = test system: ACHN renal
[2] = test system: CCRF-CEM leukemia
[3] = test system: HT29 colon
[4] = test system: MCF7 breast
[5] = test system: M14 melanoma
[6] = test system: SK-MEL-5 melanoma
[7] = test system: UACC-257 melanoma
[8] = test system: SK-MEL-2 melanoma
[9] = test system: A549 NSCLC
[10] = test system: SK-MEL-28 melanoma
[11] = test system: IGROV1 ovarian
[12] = test system: U251 CNS
[13] = test system: OVCAR-8 ovarian
[14] = test system: 786-0 renal
[15] = test system: SF-295 CNS
[16] = test system: SF-539 CNS
[17] = test system: NCI-H460 lung
[18] = test system: HCT-116 colon
[19] = test system: TK-10 renal
[20] = test system: A498 renal
[21] = test system: HOP-62 NSCLC
[22] = test system: SK-OV-3 ovarian
[23] = test system: SF-268 CNS
[24] = test system: BT-549 breast
[25] = test system: NCI-H522 lung
[26] = test system: OVCAR-4 ovarian
[27] = test system: MALME-3M melanoma
[28] = test system: EKVX NSCLC
[29] = test system: HCT-15 colon
[30] = test system: MOLT-4 leukemia
[31] = test system: RXF 393 renal
[32] = test system: RPMI-8226 leukemia
[33] = test system: NCI-H23 lung
[34] = test system: CAKI-1 renal
[35] = test system: HL-60(TB) leukemia
[36] = test system: OVCAR-5 ovarian
[37] = test system: MDA-MB-435
[38] = test system: SNB-19 CNS
[39] = test system: OVCAR-3 ovarian
[40] = test system: DU-145 prostate
[41] = test system: LOX IMVI melanoma
[42] = test system: UO-31 renal
[43] = test system: NCI-H226 lung
[44] = test system: COLO 205 colon
[45] = test system: KM12 colon
[46] = test system: T-47D breast
[47] = test system: HS 578T breast
[48] = test system: SNB-75 CNS
[49] = test system: PC-3 prostate
[50] = test system: SR leukemia
[51] = test system: HCC-2998 colon
[52] = test system: SW-620 colon
[53] = test system: K-562 leukemia
[54] = test system: HOP-92 NSCLC
[55] = test system: NCI/ADR-RES ovarian
[56] = test system: MDA-MB-231 breast
[57] = test system: UACC-62 melanoma
[58] = test system: SN12C renal

## COC(=O)[C@]12CC[C@@H](C)[C@H](C)[C@@H]1C1=CC[C@@H]3[C@@]4(C)CC(=O)[C@H](OC(=O)c5ccco5)[C@@]5(C)COC(=C45)C[C@@]3(C)[C@]1(C)CC2
[1]
  GI50: 2.94 µM
  TGI: > 100 µM
[2]
  GI50: 0.767 µM
  TGI: > 100 µM
[3]
  GI50: 0.523 µM
  TGI: > 100 µM
[4]
  GI50: 0.741 µM
  TGI: > 100 µM
[5]
  GI50: 654 nM
  TGI: > 100 µM
[6]
  GI50: 0.414 µM
  TGI: 2540 nM
[7]
  GI50: 352 nM
  TGI: 2930 nM
[8]
  GI50: 5.63 µM
  TGI: > 100 µM
[9]
  GI50: 6.31 µM
  TGI: > 100 µM
[10]
  GI50: 579 nM
  TGI: > 100 µM
[11]
  GI50: 3.71 µM
  TGI: > 100 µM
[12]
  GI50: 703 nM
  TGI: > 100 µM
[13]
  GI50: 2470 nM
  TGI: > 100 µM
[14]
  GI50: 2.24 µM
  TGI: > 100 µM
[15]
  GI50: 28.3 µM
  TGI: > 100 µM
[16]
  GI50: 7.56 µM
  TGI: > 100 µM
[17]
  GI50: 0.568 µM
  TGI: > 100 µM
[18]
  GI50: 0.337 µM
  TGI: > 100 µM
[19]
  GI50: 30.8 µM
  TGI: > 100 µM
[20]
  GI50: 13.3 µM
  TGI: > 100 µM
[21]
  GI50: 17.6 µM
  TGI: > 100 µM
[22]
  GI50: 4.67 µM
  TGI: > 100 µM
[23]
  GI50: 4.86 µM
  TGI: > 100 µM
[24]
  GI50: 2910 nM
  TGI: > 100 µM
[25]
  GI50: 3.1 µM
  TGI: > 100 µM
[26]
  GI50: 2.12 µM
  TGI: > 100 µM
[27]
  GI50: 556 nM
  TGI: > 100 µM
[28]
  GI50: 2090 nM
  TGI: > 100 µM
[29]
  GI50: 540 nM
  TGI: > 100 µM
[30]
  GI50: 0.669 µM
  TGI: > 100 µM
[31]
  GI50: 67.9 µM
  TGI: > 100 µM
[32]
  GI50: 0.584 µM
  TGI: > 100 µM
[33]
  GI50: 936 nM
  TGI: > 100 µM
[34]
  GI50: 0.729 µM
  TGI: > 100 µM
[35]
  GI50: 0.46 µM
  TGI: > 100 µM
[36]
  GI50: > 100 µM
  TGI: > 100 µM
[37]
  GI50: 763 nM
  TGI: > 100 µM
[38]
  GI50: 3.57 µM
  TGI: > 100 µM
[39]
  GI50: 2740 nM
  TGI: > 100 µM
[40]
  GI50: 9.04 µM
  TGI: > 100 µM
[41]
  GI50: 0.427 µM
  TGI: > 100 µM
[42]
  GI50: 1.7 µM
  TGI: > 100 µM
[43]
  GI50: 83.1 µM
  TGI: > 100 µM
[44]
  GI50: 342 nM
  TGI: 2930 nM
[45]
  GI50: 2.22 µM
  TGI: > 100 µM
[46]
  GI50: 0.667 µM
  TGI: > 100 µM
[47]
  GI50: > 100 µM
  TGI: > 100 µM
[48]
  GI50: 6.3 µM
  TGI: > 100 µM
[49]
  GI50: 0.592 µM
  TGI: > 100 µM
[50]
  GI50: 0.371 µM
  TGI: > 100 µM
[51]
  TGI: > 100 µM
[52]
  GI50: 0.902 µM
  TGI: > 100 µM
[53]
  GI50: 0.413 µM
  TGI: > 100 µM
[54]
  GI50: 14.9 µM
  TGI: > 100 µM
[55]
  GI50: 6.37 µM
  TGI: > 100 µM
[56]
  GI50: 5.11 µM
  TGI: > 100 µM

## Cc1ccc2c(c1)C(=O)c1c-2n(CCCN=[N+]=[N-])c(=O)c2cc([N+](=O)[O-])ccc12
[1]
  GI50: 30.8 µM
  TGI: > 100 µM
[2]
  GI50: 31.7 µM
  TGI: > 100 µM
[3]
  GI50: 14.7 µM
  TGI: > 100 µM
[4]
  GI50: 50.1 µM
  TGI: > 100 µM
[5]
  GI50: > 100000 nM
  TGI: > 100 µM
[6]
  GI50: 97.6 µM
  TGI: > 100000 nM
[7]
  GI50: > 100000 nM
  TGI: > 100000 nM
[8]
  GI50: > 100 µM
  TGI: > 100 µM
[9]
  GI50: 97.8 µM
  TGI: > 100 µM
[10]
  GI50: > 100000 nM
  TGI: > 100 µM
[11]
  GI50: 19.2 µM
  TGI: > 100 µM
[13]
  GI50: > 100000 nM
  TGI: > 100 µM
[14]
  GI50: 29.8 µM
  TGI: > 100 µM
[15]
  GI50: > 100 µM
  TGI: > 100 µM
[16]
  GI50: > 100 µM
  TGI: > 100 µM
[17]
  GI50: 21.1 µM
  TGI: > 100 µM
[18]
  GI50: 20.5 µM
  TGI: > 100 µM
[19]
  GI50: 99.8 µM
  TGI: > 100 µM
[20]
  GI50: > 100 µM
  TGI: > 100 µM
[21]
  GI50: 71.7 µM
  TGI: > 100 µM
[57]
  GI50: 30.3 µM
  TGI: > 100 µM
[23]
  GI50: 5.59 µM
  TGI: > 100 µM
[24]
  GI50: > 100000 nM
  TGI: > 100 µM
[25]
  GI50: 25.8 µM
  TGI: > 100 µM
[26]
  GI50: 14 µM
  TGI: 74.2 µM
[28]
  GI50: > 100000 nM
  TGI: > 100 µM
[29]
  GI50: > 100000 nM
  TGI: > 100 µM
[30]
  GI50: 17.8 µM
  TGI: 70.4 µM
[31]
  GI50: > 100 µM
  TGI: > 100 µM
[32]
  GI50: 21.3 µM
  TGI: > 100 µM
[33]
  GI50: > 100000 nM
  TGI: > 100 µM
[34]
  GI50: 53.9 µM
  TGI: > 100 µM
[35]
  GI50: 22 µM
  TGI: > 100 µM
[36]
  GI50: > 100 µM
  TGI: > 100 µM
[37]
  GI50: > 100000 nM
  TGI: > 100 µM
[38]
  GI50: > 100 µM
  TGI: > 100 µM
[39]
  GI50: > 100000 nM
  TGI: > 100 µM
[40]
  GI50: > 100 µM
  TGI: > 100 µM
[41]
  GI50: 33.2 µM
  TGI: > 100 µM
[58]
  GI50: 59.4 µM
  TGI: > 100 µM
[42]
  GI50: 69 µM
  TGI: > 100 µM
[43]
  GI50: > 100 µM
  TGI: > 100 µM
[44]
  GI50: > 100000 nM
  TGI: > 100000 nM
[45]
  GI50: 83 µM
  TGI: > 100 µM
[46]
  GI50: 20.7 µM
  TGI: 93.6 µM
[47]
  GI50: > 100 µM
  TGI: > 100 µM
[48]
  GI50: 1.26 µM
  TGI: 58.6 µM
[49]
  GI50: 33.4 µM
  TGI: > 100 µM
[50]
  GI50: 8.21 µM
  TGI: 63.1 µM
[51]
  GI50: > 100 µM
  TGI: > 100 µM
[52]
  GI50: 59.7 µM
  TGI: > 100 µM
[53]
  GI50: 39.4 µM
  TGI: > 100 µM
[54]
  GI50: 30.2 µM
  TGI: > 100 µM
[55]
  GI50: 94 µM
  TGI: > 100 µM
[56]
  GI50: 46.9 µM
  TGI: > 100 µM
